{"source": "patent US7122209B2", "about": "“Oral compositions for the treatment of non-diabetic obese mammals, including humans” (Quimica Farmaceutica Bayer S.A., priority 2001, dated 2006)", "key": {"[1]": {"test": "Solubility in water (description)", "format": "physicochemical"}, "[2]": {"tested_on": "cafeteria-fed rats", "test": "Diet-induced obesity (cafeteria diet) rat model, oral tungstate in drinking water", "format": "in vivo, male Wistar rats", "source_text": "The so-called “cafeteria diet” consists of an offering of freshly and highly palatable supermarket food items with high fat and/or carbohydrate content in addition to standard laboratory chow. […] Moreover, it is also known that ingestion of a cafeteria diet results in increased thermogenesis and fat deposition.\n(§1) For the present experiments, male Wistar rats (IFFA CREDO), weighing 0.20–0.22 kg, were caged individually in a 12:12-h light-dark cycle, temperature and humidity controlled environment. After an adaptation period of 1 week the animals were divided into two dietary groups. One group was fed standard chow diet (2.7% in fat content, type AO4 from Panlab, Barcelona, Spain) and the second group was fed a cafeteria diet (30% in fat content). The cafeteria diet consisted of a daily offering of cookies, liver pate, bacon, standard chow and whole milk supplemented with 333 g/l sucrose and 10 g/l of a mineral and vitamin complex (Gevral, Cynamid Ibérica, Madrid, Spain). All the food items were weighed and presented in excess.\nAn initial set of forty rats were divided into two sets of dietary conditions, control (standard diet, n=15) and cafeteria (cafeteria diet, n=25), and fed for 30 days. In order to evaluate the effects of tungstate treatment, animals from each condition were divided into two new subsets: tungstate treated and tungstate untreated groups (simply treated and untreated in the following). The treated rats were given a solution of 2 mg/ml of sodium tungstate dihydrate in distilled water.\nThe treatment was carried out for 32 days. Blood glucose measurements as well as blood samples were collected before (days 0–30), during (days 31–62) and at the end of the experimental period. Selective food items consumption (corrected by the amount of water lost for each) and the weight of all animals were recorded daily.\nAt the end of the treatment period, rats from treated (n=8) and untreated (n=7) cafeteria-fed groups and rats from both treated (n=3) and untreated (n=3) standard-fed groups were killed and several tissues (gastrocnemius muscle, intercapular brown adipose tissue (iBAT), epididimal white adipose tissue (WAT), liver, pancreas and brain) were excised, weighed, cleaned and rapidly frozen in liquid nitrogen or fixed in formol 10% for future studies.\nRemaining rats (n=19) were withdrawn the tungstate treatment, but maintained the dietary conditions, in order to start a 35 day recovery period. After this time animals were killed and processed as above. Selective food items consumption (corrected by the amount of water lost for each) and the weight of all animals were recorded daily.\nThe data obtained in this study allowed to establish an obesity criteria. […]"}, "[3]": {"tested_on": "standard-fed rats", "test": "Standard-fed rats, oral tungstate in drinking water", "format": "in vivo, male Wistar rats", "source_text": "as §1\nAn initial set of forty rats were divided into two sets of dietary conditions, control (standard diet, n=15) and cafeteria (cafeteria diet, n=25), and fed for 30 days. […]\nThe treatment was carried out for 32 days. […] Selective food items consumption (corrected by the amount of water lost for each) and the weight of all animals were recorded daily. […]\nRemaining rats (n=19) were withdrawn the tungstate treatment, but maintained the dietary conditions, in order to start a 35 day recovery period. […] Selective food items consumption (corrected by the amount of water lost for each) and the weight of all animals were recorded daily."}}}
{"smiles": "O.O.[Na+].[Na+].[O]=[W](=[O])([O-])[O-]", "note": "[sodium tungstate dihydrate]", "values": [{"measurement": "solubility in water", "setting": "[1]", "result": "easily dissolved in water"}, {"measurement": "food intake", "setting": "[2]; cafeteria diet rat model, during weight loss", "result": "without decrease of food intake"}, {"measurement": "body weight increase", "setting": "[2]; cafeteria-fed rats, 2 mg/ml sodium tungstate dihydrate in distilled water, treatment period days 31-62, vs untreated", "result": "significantly diminished body weight increase"}, {"measurement": "body weight increase difference between treated and untreated rats at day 97", "setting": "[2]; cafeteria-fed rats, end of 35 day recovery period", "result": "quite important"}, {"measurement": "body weight after withdrawal of treatment (reversibility)", "setting": "[2]; cafeteria-fed rats, recovery period days 63-97", "result": "started to gain body weight quickly"}, {"measurement": "body weight increase", "setting": "[3]; 2 mg/ml sodium tungstate dihydrate in distilled water, treatment period days 31-62, vs untreated", "result": "significantly diminished body weight increase"}, {"measurement": "body weight after withdrawal of treatment (reversibility)", "setting": "[3]; recovery period days 63-97", "result": "started to gain body weight quickly"}]}
